Data taken from paper PMC4428071, “Structural basis for epitope masking and strain specificity of a conserved epitope in an intrinsically disordered malaria vaccine candidate” (Scientific Reports, 2015).

Target: mAb 6D8
Assay: SPR binding of synthetic MSP2 peptides to immobilized (captured) mAb 6D8
Set-up: species or system mouse
Settings: Biacore T200, mAb 6D8 captured with Mouse Antibody Capture kit, peptides in 20 mM HEPES, 150 mM NaCl, 3 mM EDTA, 0.05 % Tween20, pH 7.4, from concentration dependence of steady-state responses, ± standard deviation of three replicate experiments
Protocol: To explore the structural basis of epitope masking, it was necessary to first define the minimal epitope of mAb 6D8. […]
(§1) mM scale) using a three-fold equivalent of FMOC-protected amino acid, HCTU and DIPEA in DMF per cycle. Each amino acid coupling was carried out for 30 min at room temperature with continuous shaking. Chain deprotection was carried out in 50% piperidine in DMF for 2 min. Each step in the cycle was terminated with an extensive DMF wash. Peptides were N-terminally acetylated after the last coupling and deprotected, using a three-fold equivalent of acetic anhydride and Dipea in DMF.
The fully assembled peptides were dried under vacuum and cleaved for 3 h in a mixture of TFA:TIPS:water (95:2.5:2.5 v/v). The cleaved material was precipitated in cold diethyl ether overnight at -20 °C. T he insoluble peptide material was spun down at 4,000 rpm for 30 min at 4 °C and the pellet washed twice in cold diethyl ether prior to removal of the organic phase.
The crude peptide mixture was resuspended in 50% acetonitrile/0.1% TFA, filtered and freeze-dried prior to HPLC purification.
2 mg/mL for HPLC purification. […]
linear gradient of 5 to 40% of solvent B (90% acetonitrile / 9.9% water / 0.1% TFA) against solvent A (0.1% TFA in water) over 40 min. […]
mass spectrometry (LC-MS).
Affinity measurements. […]
Where low peptide solubility precluded ITC measurements, affinity was estimated by surface plasmon resonance (SPR) (Biacore T200, GE Healthcare) using a Mouse Antibody Capture kit (GE Healthcare). Synthetic peptides were resuspended in running buffer (20 mM HEPES, 150 mM NaCl, 3 mM EDTA, 0.05 % Tween20, pH 7.4) and injected over the 6D8-captured

Row | Substance | Kd [nM]
1 | Ac-AYNMSIRR-NH2 [MSP2_15-22] | 87 ± 21
2 | Ac-AYNMSIRRS-NH2 [MSP2_15-23] | 34 ± 12
3 | Ac-FINNAYNMSIRRS-NH2 [MSP2_11-23] | 6 ± 3
4 | Ac-NAYNMSIRR-NH2 [MSP2_14-22] | 6 ± 2

Same assay, conditions: at up to 1 μM peptide concentration

Row | Substance | Binding to immobilized mAb 6D8 (in words)
5 | Ac-AYNMSIRR-NH2 [MSP2_15-22] | detectable binding
6 | NAYNMSIR [MSP2_14-21, N-acetylated, C-amidated synthetic peptide, residues 14-21 of MSP2] | abolishes binding
7 | YNMSIRRS [MSP2_16-23, N-acetylated, C-amidated synthetic peptide, residues 16-23 of MSP2] | abolishes binding

System: not listed separately
Assay: Aggregation tendency of peptides on resuspension for HPLC purification
Type: physicochemical
Settings: crude peptide resuspended for HPLC purification; had to be resuspended in 10 mM acetic acid at 1 mg/mL
Protocol: as §1
The fully assembled peptides were dried under vacuum and cleaved for 3 h in a mixture of TFA:TIPS:water (95:2.5:2.5 v/v). The cleaved material was precipitated in cold diethyl ether overnight at -20 °C. […]
MSP2 peptides were purified on a reverse-phase C18 column (Zorbax, 10 x 300 mm) using a linear gradient of 5 to 40% of solvent B (90% acetonitrile / 9.9% water / 0.1% TFA) against solvent A (0.1% TFA in water) over 40 min. The purity of MSP2 peptides was assessed by mass spectrometry (LC-MS).
Affinity measurements. Binding affinity constants of 6D8 antibodies (IgG and scFv) for synthetic peptides and recombinant allelic forms of MSP2 were determined by isothermal titration calorimetry (Microcal ITC-200, GE Healthcare) using either murine mAb 6D8 produced and affinity-purified by the Walter and Eliza Hall Institute antibody facility3 or 6D8 scFv. […]

Row | Substance | Tendency to aggregate
8 | INNAYNMS [MSP2_12-19, N-acetylated, C-amidated synthetic peptide, residues 12-19 of MSP2] | high tendency
9 | NNAYNMSI [MSP2_13-20, N-acetylated, C-amidated synthetic peptide, residues 13-20 of MSP2] | high tendency
